In ChEMBL document CHEMBL1150930, “Metabolism of rosmarinic acid in rats” (J Nat Prod, 1998):

Tests used:
Set-up in all cases: dose 200 mg/kg, route oral
[1] = system: Rattus norvegicus; experiment: Metabolic stability in Sprague-Dawley rat assessed as urinary excretion of trans-ferulic acid 4-O-sulfate level at 200 mg/kg, po after 0 to 36 hrs by HPLC; assay type: ADME, organism-based, Urine; settings: in vivo
[2] = system: Rattus norvegicus; experiment: Metabolic stability in Sprague-Dawley rat assessed as urinary excretion of trans-caffeic acid 4-O-sulfate level at 200 mg/kg, po after 0 to 72 hrs by HPLC; assay type: ADME, organism-based, Urine; settings: in vivo
[3] = system: Rattus norvegicus; experiment: Metabolic stability in Sprague-Dawley rat assessed as urinary excretion of m-hydroxyphenyl-propionic acid level at 200 mg/kg, po after 0 to 48 hrs by HPLC; assay type: ADME, organism-based, Urine; settings: in vivo
[4] = system: Rattus norvegicus; experiment: Metabolic stability in Sprague-Dawley rat assessed as urinary excretion of trans-m-coumaric acid level at 200 mg/kg, po after 0 to 24 hrs by HPLC; assay type: ADME, organism-based, Urine; settings: in vivo
[5] = system: Rattus norvegicus; experiment: Metabolic stability in Sprague-Dawley rat assessed as urinary excretion of trans-ferulic acid 4-O-sulfate level at 200 mg/kg, po after 0 to 8 hrs by HPLC; assay type: ADME, organism-based, Urine; settings: in vivo
[6] = system: Rattus norvegicus; experiment: Metabolic stability in Sprague-Dawley rat assessed as urinary excretion of total metabolites at 200 mg/kg, po after 0 to 8 hrs by HPLC; assay type: ADME, organism-based, Urine; settings: in vivo
[7] = system: Rattus norvegicus; experiment: Metabolic stability in Sprague-Dawley rat assessed as urinary excretion of trans-m-coumaric acid 3-O-sulfate level at 200 mg/kg, po after 0 to 48 hrs by HPLC; assay type: ADME, organism-based, Urine; settings: in vivo
[8] = system: Rattus norvegicus; experiment: Metabolic stability in Sprague-Dawley rat assessed as urinary excretion of trans-caffeic acid 4-O-sulfate level at 200 mg/kg, po after 0 to 12 hrs by HPLC; assay type: ADME, organism-based, Urine; settings: in vivo
[9] = system: Rattus norvegicus; experiment: Metabolic stability in Sprague-Dawley rat assessed as urinary excretion of trans-caffeic acid level at 200 mg/kg, po after 0 to 48 hrs by HPLC; assay type: ADME, organism-based, Urine; settings: in vivo
[10] = system: Rattus norvegicus; experiment: Metabolic stability in Sprague-Dawley rat assessed as urinary excretion of total metabolites at 200 mg/kg, po after 0 to 72 hrs by HPLC; assay type: ADME, organism-based, Urine; settings: in vivo
[11] = system: Rattus norvegicus; experiment: Metabolic stability in Sprague-Dawley rat assessed as urinary excretion of trans-ferulic acid 4-O-sulfate level at 200 mg/kg, po after 0 to 12 hrs by HPLC; assay type: ADME, organism-based, Urine; settings: in vivo
[12] = system: Rattus norvegicus; experiment: Metabolic stability in Sprague-Dawley rat assessed as urinary excretion of trans-caffeic acid 4-O-sulfate level at 200 mg/kg, po after 0 to 8 hrs by HPLC; assay type: ADME, organism-based, Urine; settings: in vivo
[13] = system: Rattus norvegicus; experiment: Metabolic stability in Sprague-Dawley rat assessed as urinary excretion of trans-caffeic acid level at 200 mg/kg, po after 0 to 24 hrs by HPLC; assay type: ADME, organism-based, Urine; settings: in vivo
[14] = system: Rattus norvegicus; experiment: Metabolic stability in Sprague-Dawley rat assessed as urinary excretion of trans-m-coumaric acid 3-O-sulfate level at 200 mg/kg, po after 0 to 72 hrs by HPLC; assay type: ADME, organism-based, Urine; settings: in vivo
[15] = system: Rattus norvegicus; experiment: Metabolic stability in Sprague-Dawley rat assessed as urinary excretion of trans-ferulic acid 4-O-sulfate level at 200 mg/kg, po after 0 to 48 hrs by HPLC; assay type: ADME, organism-based, Urine; settings: in vivo
[16] = system: Rattus norvegicus; experiment: Metabolic stability in Sprague-Dawley rat assessed as urinary excretion of trans-ferulic acid 4-O-sulfate level at 200 mg/kg, po after 0 to 4 hrs by HPLC; assay type: ADME, organism-based, Urine; settings: in vivo
[17] = Metabolic stability in Sprague-Dawley rat assessed as urinary excretion of unchanged drug level at 200 mg/kg, po after 0 to 48 hrs by HPLC; assay type: ADME, organism-based; settings: urine, read-out: Activity
[18] = system: Rattus norvegicus; experiment: Metabolic stability in Sprague-Dawley rat assessed as urinary excretion of trans-m-coumaric acid level at 200 mg/kg, po after 0 to 72 hrs by HPLC; assay type: ADME, organism-based, Urine; settings: in vivo
[19] = system: Rattus norvegicus; experiment: Metabolic stability in Sprague-Dawley rat assessed as urinary excretion of trans-m-coumaric acid level at 200 mg/kg, po after 0 to 36 hrs by HPLC; assay type: ADME, organism-based, Urine; settings: in vivo
[20] = system: Rattus norvegicus; experiment: Metabolic stability in Sprague-Dawley rat assessed as urinary excretion of trans-m-coumaric acid 3-O-sulfate level at 200 mg/kg, po after 0 to 36 hrs by HPLC; assay type: ADME, organism-based, Urine; settings: in vivo
[21] = Metabolic stability in Sprague-Dawley rat assessed as urinary excretion of unchanged drug level at 200 mg/kg, po after 0 to 12 hrs by HPLC; assay type: ADME, organism-based; settings: urine, read-out: Activity
[22] = system: Rattus norvegicus; experiment: Metabolic stability in Sprague-Dawley rat assessed as urinary excretion of trans-ferulic acid 4-O-sulfate level at 200 mg/kg, po after 0 to 72 hrs by HPLC; assay type: ADME, organism-based, Urine; settings: in vivo
[23] = system: Rattus norvegicus; experiment: Metabolic stability in Sprague-Dawley rat assessed as urinary excretion of trans-caffeic acid level at 200 mg/kg, po after 0 to 4 hrs by HPLC; assay type: ADME, organism-based, Urine; settings: in vivo
[24] = system: Rattus norvegicus; experiment: Metabolic stability in Sprague-Dawley rat assessed as urinary excretion of trans-m-coumaric acid 3-O-sulfate level at 200 mg/kg, po after 0 to 24 hrs by HPLC; assay type: ADME, organism-based, Urine; settings: in vivo
[25] = Metabolic stability in Sprague-Dawley rat assessed as urinary excretion of unchanged drug level at 200 mg/kg, po after 0 to 4 hrs by HPLC; assay type: ADME, organism-based; settings: urine, read-out: Activity
[26] = system: Rattus norvegicus; experiment: Metabolic stability in Sprague-Dawley rat assessed as urinary excretion of trans-m-coumaric acid level at 200 mg/kg, po after 0 to 8 hrs by HPLC; assay type: ADME, organism-based, Urine; settings: in vivo

Structure (SMILES): O=C(/C=C/c1ccc(O)c(O)c1)O[C@H](Cc1ccc(O)c(O)c1)C(=O)O [ROSMARINIC ACID]
- Activity [1]: 0.559%
- Activity [2]: 0.154%
- Activity [3]: 18.357%
- Activity [4]: 0.333%
- Activity [5]: 0.284%
- Activity [6]: 1.476%
- Activity [7]: 12.137%
- Activity [8]: 0.139%
- Activity [9]: 0.117%
- Activity [10]: 31.836%
- Activity [11]: 0.462%
- Activity [12]: 0.124%
- Activity [13]: 0.063%
- Activity [14]: 12.137%
- Activity [15]: 0.581%
- Activity [16]: 0.081%
- dose excreted [17]: 0.077%
- Activity [18]: 0.413%
- Activity [19]: 0.399%
- Activity [20]: 11.778%
- dose excreted [21]: 0.077%
- Activity [22]: 0.581%
- Activity [23]: 0.01%
- Activity [24]: 7.456%
- dose excreted [25]: 0.041%
- Activity [26]: 0.015%
